pIC50: −log10 of the molar value.
Molecular target: T1, Recombinant human p70S6K kinase (Homo sapiens, UniProt P23443)
T1 construct: purchased ThermoFisher Scientific PV3815
Experiment: S6K Enzymatic Inhibition Assay (HotSpot kinase assay; called S6K binding assay in Table 2)
Type: biochemical
Conditions: IC50 class
Method: Enzymatic activity was determined using a commercial HotSpot kinase assay. Recombinant human p70S6K kinase was purchased from ThermoFisher Scientific (cat #PV3815). The substrate S6K/RSK2 peptide 2 was synthesized at Genscript [Piscataway, NJ]. In brief, the substrate was prepared in the reaction buffer [20 mM Hepes (pH 7.5), 10 mM MgCl2, 1 mM EGTA, 0.02% Brij35, 0.02 mg/mL BSA, 0.1 mM Na3VO4, 2 mM DTT, 1% DMSO]. Testing compounds were dissolved in 100% DMSO and a serial dilution was conducted in DMSO. The kinase at final concentration of 3 nM was added into the substrate solution and gently mixed. Test compounds were delivered at the appropriate concentrations into the kinase reaction mixture by Echo550, and incubated for 20 minutes at room temperature. ^33P-ATP (Specific activity 10 μCi/μL) was added into the reaction mixture to initiate the reaction. Assay plates were incubated for 2 hours at room temperature. The radioactivity was detected by filter-binding method. Kinase activity data is expressed as the percent remaining kinase activity in test samples compared to vehicle (DMSO) reactions. IC50 curves were plotted and IC50 values were calculated using the GraphPad Prism 4 program based on a sigmoidal dose-response equation.

T1 sequence (P23443 whole entry): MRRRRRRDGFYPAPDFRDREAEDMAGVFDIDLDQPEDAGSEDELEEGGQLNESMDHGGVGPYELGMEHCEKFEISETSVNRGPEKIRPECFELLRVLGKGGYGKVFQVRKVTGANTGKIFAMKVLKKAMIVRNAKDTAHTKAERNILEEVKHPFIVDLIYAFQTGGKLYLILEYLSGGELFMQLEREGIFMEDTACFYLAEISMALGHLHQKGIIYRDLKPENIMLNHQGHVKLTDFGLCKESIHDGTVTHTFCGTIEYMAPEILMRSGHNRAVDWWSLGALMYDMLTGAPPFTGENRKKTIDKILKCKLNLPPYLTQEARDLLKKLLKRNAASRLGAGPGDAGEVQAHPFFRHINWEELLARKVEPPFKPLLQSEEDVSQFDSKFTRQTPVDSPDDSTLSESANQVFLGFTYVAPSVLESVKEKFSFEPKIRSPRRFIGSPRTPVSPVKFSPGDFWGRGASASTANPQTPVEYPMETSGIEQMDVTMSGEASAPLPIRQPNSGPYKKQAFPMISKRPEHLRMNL

Row | pIC50 | Compound
1 | 5.00 to 6.30 | Nc1cc(-c2cnn(Cc3ccc(C(F)(F)F)cc3)c2)c(Cl)cn1 [Example 37, 5-Chloro-4-(1-{[p-(trifluoromethyl)phenyl]methyl}-1H-pyrazol-4-yl)-2-pyridylamine]
2 | > 7.30 | COc1ccc(-c2c(-c3cnn(Cc4ccc(C(F)(F)F)cc4)c3)ccnc2N)cc1 [Example 38, 3-(p-Methoxyphenyl)-4-(1-{[p-(trifluoromethyl)phenyl]methyl}-1H-pyrazol-4-yl)-2-pyridylamine]
3 | > 7.30 | Nc1nccc(-c2cnn(Cc3ccc(C(F)(F)F)cc3)c2)c1-c1ccc(Cl)cc1 [Example 39, 3-(p-Chlorophenyl)-4-(1-{[p-(trifluoromethyl)phenyl]methyl}-1H-pyrazol-4-yl)-2-pyridylamine]

Source: patent US12234224B2, “Pyrimidine and pyridine amine compounds and usage thereof in disease treatment” (Epigen Biosciences, Inc., priority 2021, dated 2025)
